Key:
Assay type in all cases: cell-based
[1] = target: T1, 17β-hydroxysteroid dehydrogenase type 2 (17β-HSD type 2) (Homo sapiens, UniProt P37059); assay: Inhibition of 17β-HSD type 2 in MCF-7 cells stably expressing the isoenzyme (tritium labeled estradiol conversion, HPLC); settings: MCF-7 cells expressing 17β-HSD type 2, 2 nM tritium labeled estradiol; for inhibition at 1 µM / inhibition at 10 µM: MCF7; for inhibition at 1 µM: read-out: % Inhibition HSD2 1 μM; for inhibition at 10 µM: read-out: % Inhibition HSD2 10 μM
T1 construct: expressed in transfected cells; host or cells: MCF-7
T1 sequence (P37059 1-387): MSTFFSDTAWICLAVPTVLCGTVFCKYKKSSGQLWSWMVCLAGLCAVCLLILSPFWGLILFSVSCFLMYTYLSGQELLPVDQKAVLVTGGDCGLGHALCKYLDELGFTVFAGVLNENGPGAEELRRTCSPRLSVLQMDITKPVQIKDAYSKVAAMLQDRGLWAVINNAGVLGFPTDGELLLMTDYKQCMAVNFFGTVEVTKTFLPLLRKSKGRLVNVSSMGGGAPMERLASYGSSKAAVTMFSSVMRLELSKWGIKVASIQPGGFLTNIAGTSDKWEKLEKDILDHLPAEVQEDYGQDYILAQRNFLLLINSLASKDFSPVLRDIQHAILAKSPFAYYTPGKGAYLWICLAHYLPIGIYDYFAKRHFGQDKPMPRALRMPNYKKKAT
Method in brief: (§1)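 MCF-7 lines stably expressing each 17β-HSD isoenzyme incubated in growth medium with compound at two concentrations and 2 nM tritiated substrate (estrone, type 1; estradiol, type 2; androstenedione, type 3). Reaction stopped with TCA; conversion measured by HPLC with flow scintillation, inhibition relative to compound-free control.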

[2] = target: T2, 17β-hydroxysteroid dehydrogenase type 3 (17β-HSD type 3) (Homo sapiens, UniProt P37058); assay: Inhibition of 17β-HSD type 3 in MCF-7 cells stably expressing the isoenzyme (tritium labeled androstenedione conversion, HPLC); settings: MCF-7 cells expressing 17β-HSD type 3, 2 nM tritium labeled androstenedione; for inhibition at 1 µM / inhibition at 10 µM: MCF7; for inhibition at 1 µM: read-out: % Inhibition HSD3 1 μM; for inhibition at 10 µM: read-out: % Inhibition HSD3 10 μM
T2 construct: expressed in transfected cells; host or cells: MCF-7
T2 sequence (P37058 1-310): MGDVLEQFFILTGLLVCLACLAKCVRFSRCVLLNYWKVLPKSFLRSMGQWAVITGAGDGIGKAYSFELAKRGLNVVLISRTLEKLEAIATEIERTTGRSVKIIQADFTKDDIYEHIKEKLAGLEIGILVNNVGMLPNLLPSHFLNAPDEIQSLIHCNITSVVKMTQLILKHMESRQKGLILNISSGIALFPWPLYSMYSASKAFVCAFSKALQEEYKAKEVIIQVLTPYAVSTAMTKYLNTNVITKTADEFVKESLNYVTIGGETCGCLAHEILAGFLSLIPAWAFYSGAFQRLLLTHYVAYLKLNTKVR
Method in brief: as §1

[3] = target: T3, 17β-hydroxysteroid dehydrogenase type 1 (17β-HSD type 1) (Homo sapiens, UniProt P14061); assay: Inhibition of 17β-HSD type 1 in MCF-7 cells stably expressing the isoenzyme (tritium labeled estrone conversion, HPLC); settings: MCF-7 cells expressing 17β-HSD type 1, 2 nM tritium labeled estrone; for inhibition at 1 µM / inhibition at 10 µM: MCF7; for inhibition at 1 µM: read-out: % Inhibition HSD1 1 μM; for inhibition at 10 µM: read-out: % Inhibition HSD1 10 μM
T3 construct: expressed in transfected cells; host or cells: MCF-7
T3 sequence (P14061 1-328): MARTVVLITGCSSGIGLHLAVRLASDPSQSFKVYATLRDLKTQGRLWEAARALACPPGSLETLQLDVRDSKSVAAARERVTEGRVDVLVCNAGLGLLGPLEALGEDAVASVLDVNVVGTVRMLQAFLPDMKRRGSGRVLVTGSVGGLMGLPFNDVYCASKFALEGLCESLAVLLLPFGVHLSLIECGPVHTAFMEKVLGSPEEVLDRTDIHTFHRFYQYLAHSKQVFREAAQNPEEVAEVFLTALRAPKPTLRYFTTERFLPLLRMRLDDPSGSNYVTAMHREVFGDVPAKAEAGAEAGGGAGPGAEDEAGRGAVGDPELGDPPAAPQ
Method in brief: as §1

inhibition at 1 µM ([1]; 1 μM test compound) [%] | inhibition at 10 µM ([1]; 10 μM test compound) [%] | inhibition at 1 µM ([2]; 1 μM test compound) [%] | inhibition at 10 µM ([2]; 10 μM test compound) [%] | inhibition at 1 µM ([3]; 1 μM test compound) [%] | inhibition at 10 µM ([3]; 10 μM test compound) [%] | Compound | % Inhibition HSD2 1 μM ([1]; 1 μM test compound) [%] | % Inhibition HSD2 10 μM ([1]; 10 μM test compound) [%] | % Inhibition HSD3 1 μM ([2]; 1 μM test compound) [%] | % Inhibition HSD3 10 μM ([2]; 10 μM test compound) [%] | % Inhibition HSD1 1 μM ([3]; 1 μM test compound) [%] | % Inhibition HSD1 10 μM ([3]; 10 μM test compound) [%]
31.2 | 40.1 | 30.9 | 80.1 | 37.7 | 84.7 | CCCCn1c(-c2cc(OC)c(OC)c(OC)c2)nc2sc3c(O)cccc3c2c1=O [No. 89, 3-Butyl-8-hydroxy-2-(3,4,5-trimethoxyphenyl)-3H-benzo[4,5]thieno[2,3-d]pyrimidin-4-one] | – | – | – | – | – | –
-3 | 5.7 | -2.4 | 17.4 | 7.7 | 5.7 | COc1cc(-c2nc3sc4c(c3c(=O)n2Cc2ccccc2)CC(C)C(Br)C4=O)c(Br)c(OC)c1OC (stereo not drawn) [No. 689, 3-Benzyl-7-bromo-6-methyl-2-(2-bromo-3,4,5-trimethoxyphenyl)-6,7-dihydro-3H-benzo[4,5]thieno[2,3-d]pyrimidin-4,8-dione] | – | – | – | – | – | –
14.2 | 23.5 | -2.7 | 6.4 | 17.3 | 19.2 | COc1cc(-c2nc3sc4c(O)cc(C)cc4c3c(=O)n2Cc2ccccc2)c(Br)c(OC)c1OC [No. 690, 3-Benzyl-2-(2-bromo-3,4,5-trimethoxyphenyl)-8-hydroxy-6-methyl-3H-benzo[4,5]thieno[2,3-d]pyrimidin-4-one] | – | – | – | – | – | –
-4.3 | 20.1 | -7.2 | 6.5 | 20.1 | 30.7 | COc1cc(-c2nc3sc4c(c3c(=O)n2Cc2ccccc2)CCC(C=O)=C4Oc2ccccc2)cc(OC)c1OC [No. 4, 3-Benzyl-4-oxo-8-phenoxy-2-(3,4,5-trimethoxyphenyl)-3,4,5,6-tetrahydro-benzo[4,5]thieno[2,3-d]pyrimidine-7-carbaldehyde] | – | – | – | – | – | –
28.2 | 33.7 | 3.7 | 18.1 | 21.5 | 26.1 | COc1cc(-c2nc3sc4c(OC)cccc4c3c(=O)n2Cc2ccccc2)c(Br)c(OC)c1OC [No. 91, 3-Benzyl-8-methoxy-2-(2-bromo-3,4,5-trimethoxyphenyl)-3H-benzo[4,5]thieno[2,3-d]pyrimidin-4-one] | – | – | – | – | – | –
-3.2 | 7.8 | -19.4 | 29.1 | 3.2 | 38.4 | COc1cc(-c2nc3sc4c(c3c(=O)n2Cc2ccccc2)CCC(C=O)=C4Cl)cc(OC)c1OC [No. 3, 3-Benzyl-8-chloro-4-oxo-2-(3,4,5-trimethoxyphenyl)-3,4,5,6-tetrahydro-benzo[4,5]thieno[2,3-d]pyrimidine-7-carbaldehyde] | – | – | – | – | – | –
0 | 15.1 | 66.1 | 100 | 12.1 | 25.9 | CCSc1c(C=O)ccc2c1sc1nc(-c3ccc(OC)cc3)n(Cc3ccccc3)c(=O)c12 [No. 18, 3-Benzyl-8-ethylsulfanyl-2-(p-methoxyphenyl)-4-oxo-3,4-dihydro-benzo[4,5]thieno[2,3-d]pyrimidine-7-carbaldehyde] | – | – | – | – | – | –

Second part, the molecule before the results:

Compound | inhibition at 1 µM ([1]; 1 μM test compound) [%] | inhibition at 10 µM ([1]; 10 μM test compound) [%] | inhibition at 1 µM ([2]; 1 μM test compound) [%] | inhibition at 10 µM ([2]; 10 μM test compound) [%] | inhibition at 1 µM ([3]; 1 μM test compound) [%] | inhibition at 10 µM ([3]; 10 μM test compound) [%] | % Inhibition HSD2 1 μM ([1]; 1 μM test compound) [%] | % Inhibition HSD2 10 μM ([1]; 10 μM test compound) [%] | % Inhibition HSD3 1 μM ([2]; 1 μM test compound) [%] | % Inhibition HSD3 10 μM ([2]; 10 μM test compound) [%] | % Inhibition HSD1 1 μM ([3]; 1 μM test compound) [%] | % Inhibition HSD1 10 μM ([3]; 10 μM test compound) [%]
COCc1nc2sc3c(O)cccc3c2c(=O)n1CCc1ccccc1 [No. 629] | – | – | – | – | – | – | 39.1 | 71.7 | 19.3 | 35.9 | 22.4 | 33.1
COCc1nc2sc3c(c2c(=O)n1-c1ccccc1)CCCC3=O [No. 37, 2-Methoxymethyl-3-phenyl-6,7-dihydro-3H,5H-benzo[4,5]thieno[2,3-d]pyrimidin-4,8-dione] | -0.2 | 9 | 9.2 | 22.2 | 9.7 | 21.4 | – | – | – | – | – | –
COc1cc(-c2nc3sc4c(c3c(=O)n2Cc2ccco2)CCCC4=O)cc(OC)c1OC [No. 120, 3-Furan-2-ylmethyl-2-(3,4,5-trimethoxylphenyl)-6,7-dihydro-3H,5H-benzo[4,5]thieno[2,3-d]pyrimidine-4,8-dione] | 19.9 | 35.4 | 12.4 | 38.4 | 17.6 | 52.1 | – | – | – | – | – | –
CCCCn1c(-c2cccs2)nc2sc3c(c2c1=O)CCCC3=O [No. 134, 3-Butyl-2-thiophen-2-yl-6,7-dihydro-3H,5H-benzo[4,5]thieno[2,3-d]pyrimidine-4,8-dione] | 9.9 | 11.6 | 17.2 | 21.6 | 16 | 7.9 | – | – | – | – | – | –
COc1ccc(-c2nc3sc4c(c3c(=O)n2Cc2ccccc2)CCCC4)cc1 [No. 12, 3-Benzyl-2-(p-methoxyphenyl)-5,6,7,8-tetrahydro-3H-benzo[4,5]thieno[2,3-d]pyrimidin-4-one] | 4.2 | 12.3 | 3.1 | 55.5 | 6.3 | 34.5 | – | – | – | – | – | –
O=C1CCCc2c1sc1nc(-c3ccc(Br)s3)n(Cc3ccccc3)c(=O)c21 [No. 64, 3-Benzyl-2-(5-bromothiophen-2-yl)-6,7-dihydro-3H,5H-benzo[4,5]thieno[2,3-d]pyrimidine-4,8-dione] | 15.4 | 16.6 | 12.1 | 49 | 15 | 20.7 | – | – | – | – | – | –
O=C1c2sc3nc(-c4cccs4)n(Cc4ccccc4)c(=O)c3c2CCC1Br (stereo not drawn) | 32.8 | 48.4 | 21.8 | 25.6 | 28.5 | 23.2 | – | – | – | – | – | –
CCC(C)Cn1c(-c2cc(OC)c(OC)c(OC)c2)nc2sc3c(c2c1=O)CCCC3=O (stereo not drawn) [No. 126, 3-(2-Methylbutyl)-2-(3,4,5-trimethoxyphenyl)-6,7-dihydro-3H,5H-benzo[4,5]thieno[2,3-d]pyrimidine-4,8-dione] | 6.6 | -9 | 8 | 36.3 | 27.4 | 59.3 | – | – | – | – | – | –

Reference: US7524853B2 (Solvay Pharmaceuticals B.V., priority 2003, dated 2009)
